Among the targets are Histamine H1 receptor (Homo sapiens, UniProt P35367); D(3) dopamine receptor (Homo sapiens, UniProt P35462); Histamine H3 receptor (Homo sapiens, UniProt Q9Y5N1).
The target of a further test is Histamine H2 receptor (Homo sapiens, UniProt P25021). The format is functional, cell-based.
Test [1] has as its target T1, 5-hydroxytryptamine receptor 2C (Homo sapiens, UniProt P28335).
T1 sequence (P28335 whole entry): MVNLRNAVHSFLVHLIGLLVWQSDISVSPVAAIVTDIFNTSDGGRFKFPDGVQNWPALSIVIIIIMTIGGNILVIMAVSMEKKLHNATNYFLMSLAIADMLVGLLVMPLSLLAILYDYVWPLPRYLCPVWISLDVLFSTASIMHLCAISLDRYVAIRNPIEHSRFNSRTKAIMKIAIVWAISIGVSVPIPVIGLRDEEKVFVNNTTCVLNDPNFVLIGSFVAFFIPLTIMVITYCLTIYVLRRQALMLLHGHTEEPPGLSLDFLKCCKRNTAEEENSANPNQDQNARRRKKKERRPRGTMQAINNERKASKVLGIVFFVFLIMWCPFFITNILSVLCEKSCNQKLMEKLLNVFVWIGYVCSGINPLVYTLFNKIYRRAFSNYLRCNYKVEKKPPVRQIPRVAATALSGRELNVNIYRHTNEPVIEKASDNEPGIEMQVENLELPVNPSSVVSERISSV

The target of another test is T2, Glucocorticoid receptor (Homo sapiens, UniProt P04150).
T2 sequence (P04150 whole entry): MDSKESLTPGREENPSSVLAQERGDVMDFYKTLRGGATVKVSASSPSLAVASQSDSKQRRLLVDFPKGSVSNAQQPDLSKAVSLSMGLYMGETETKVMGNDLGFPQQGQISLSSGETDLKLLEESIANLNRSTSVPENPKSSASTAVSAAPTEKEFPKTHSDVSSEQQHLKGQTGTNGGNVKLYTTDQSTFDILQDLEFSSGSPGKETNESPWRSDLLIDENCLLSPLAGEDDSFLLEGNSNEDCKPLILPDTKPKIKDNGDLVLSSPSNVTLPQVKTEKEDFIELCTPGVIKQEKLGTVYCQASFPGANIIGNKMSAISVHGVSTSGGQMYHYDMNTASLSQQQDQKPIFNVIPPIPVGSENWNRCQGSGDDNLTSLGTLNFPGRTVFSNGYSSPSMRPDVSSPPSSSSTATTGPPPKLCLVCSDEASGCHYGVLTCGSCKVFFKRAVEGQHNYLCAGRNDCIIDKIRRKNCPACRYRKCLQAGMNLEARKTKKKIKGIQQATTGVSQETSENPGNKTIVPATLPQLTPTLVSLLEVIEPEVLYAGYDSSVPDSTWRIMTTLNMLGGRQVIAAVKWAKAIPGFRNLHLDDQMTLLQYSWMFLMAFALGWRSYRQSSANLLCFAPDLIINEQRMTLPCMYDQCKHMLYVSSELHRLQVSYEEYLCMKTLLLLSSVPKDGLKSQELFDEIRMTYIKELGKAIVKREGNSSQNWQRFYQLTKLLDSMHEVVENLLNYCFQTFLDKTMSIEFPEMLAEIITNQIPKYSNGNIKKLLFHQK

Test [2] deals with Delta-type opioid receptor (Homo sapiens, UniProt P41143).
The next test addresses T3, Progesterone receptor (Homo sapiens, UniProt P06401).
T3 sequence (P06401 whole entry): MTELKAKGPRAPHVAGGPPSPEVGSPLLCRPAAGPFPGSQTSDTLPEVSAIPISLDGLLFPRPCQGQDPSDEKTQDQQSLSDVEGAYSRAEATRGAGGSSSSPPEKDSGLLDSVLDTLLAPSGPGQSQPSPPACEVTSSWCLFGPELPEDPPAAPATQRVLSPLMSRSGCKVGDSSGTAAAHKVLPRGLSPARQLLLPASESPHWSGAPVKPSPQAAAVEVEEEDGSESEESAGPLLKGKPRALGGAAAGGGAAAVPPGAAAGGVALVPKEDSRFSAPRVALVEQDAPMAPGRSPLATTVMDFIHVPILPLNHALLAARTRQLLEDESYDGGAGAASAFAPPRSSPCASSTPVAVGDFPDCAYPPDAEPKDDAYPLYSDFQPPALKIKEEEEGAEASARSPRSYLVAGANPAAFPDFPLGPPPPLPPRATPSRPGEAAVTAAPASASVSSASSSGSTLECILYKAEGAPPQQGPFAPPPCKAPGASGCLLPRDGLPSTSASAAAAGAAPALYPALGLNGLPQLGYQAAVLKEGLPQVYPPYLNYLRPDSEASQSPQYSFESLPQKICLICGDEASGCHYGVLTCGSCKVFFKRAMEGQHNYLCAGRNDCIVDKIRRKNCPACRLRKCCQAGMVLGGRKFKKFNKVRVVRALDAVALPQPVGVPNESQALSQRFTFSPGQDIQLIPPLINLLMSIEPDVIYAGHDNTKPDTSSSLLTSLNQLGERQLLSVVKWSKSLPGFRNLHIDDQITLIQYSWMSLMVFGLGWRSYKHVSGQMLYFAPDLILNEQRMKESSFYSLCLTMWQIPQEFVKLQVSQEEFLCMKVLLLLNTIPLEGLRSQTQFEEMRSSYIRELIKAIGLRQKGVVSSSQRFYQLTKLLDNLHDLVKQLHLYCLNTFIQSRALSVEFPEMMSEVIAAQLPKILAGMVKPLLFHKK
The format is functional.

The target of the next test is T4, Thromboxane A2 receptor (Homo sapiens, UniProt P21731).
T4 sequence (P21731 whole entry): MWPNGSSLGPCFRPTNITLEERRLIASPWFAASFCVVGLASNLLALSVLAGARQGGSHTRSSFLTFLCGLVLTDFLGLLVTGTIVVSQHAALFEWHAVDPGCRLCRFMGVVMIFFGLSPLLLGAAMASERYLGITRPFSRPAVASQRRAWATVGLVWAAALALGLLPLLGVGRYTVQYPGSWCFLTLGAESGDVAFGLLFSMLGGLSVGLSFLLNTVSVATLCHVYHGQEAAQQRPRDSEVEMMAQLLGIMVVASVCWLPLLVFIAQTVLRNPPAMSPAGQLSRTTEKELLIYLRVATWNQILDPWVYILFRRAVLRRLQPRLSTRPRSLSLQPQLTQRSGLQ

For test [3], the target named is Sodium-dependent dopamine transporter (Homo sapiens, UniProt Q01959).
Test [4] deals with Sodium-dependent noradrenaline transporter (Homo sapiens, UniProt P23975).
Test [5] has as its target Sodium-dependent serotonin transporter (Homo sapiens, UniProt P31645).
Further: assay procedure not described here.

Chain of Delta-type opioid receptor (P41143 whole entry): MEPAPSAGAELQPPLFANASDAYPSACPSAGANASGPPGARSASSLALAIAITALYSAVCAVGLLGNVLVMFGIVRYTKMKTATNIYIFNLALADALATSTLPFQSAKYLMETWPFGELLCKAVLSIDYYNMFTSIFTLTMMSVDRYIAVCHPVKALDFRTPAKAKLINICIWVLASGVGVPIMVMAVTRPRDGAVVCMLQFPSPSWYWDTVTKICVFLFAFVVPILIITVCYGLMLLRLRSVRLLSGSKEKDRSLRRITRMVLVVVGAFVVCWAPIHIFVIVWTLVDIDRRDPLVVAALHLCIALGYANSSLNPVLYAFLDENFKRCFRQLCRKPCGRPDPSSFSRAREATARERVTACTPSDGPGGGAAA
Chain of Sodium-dependent noradrenaline transporter (P23975 whole entry): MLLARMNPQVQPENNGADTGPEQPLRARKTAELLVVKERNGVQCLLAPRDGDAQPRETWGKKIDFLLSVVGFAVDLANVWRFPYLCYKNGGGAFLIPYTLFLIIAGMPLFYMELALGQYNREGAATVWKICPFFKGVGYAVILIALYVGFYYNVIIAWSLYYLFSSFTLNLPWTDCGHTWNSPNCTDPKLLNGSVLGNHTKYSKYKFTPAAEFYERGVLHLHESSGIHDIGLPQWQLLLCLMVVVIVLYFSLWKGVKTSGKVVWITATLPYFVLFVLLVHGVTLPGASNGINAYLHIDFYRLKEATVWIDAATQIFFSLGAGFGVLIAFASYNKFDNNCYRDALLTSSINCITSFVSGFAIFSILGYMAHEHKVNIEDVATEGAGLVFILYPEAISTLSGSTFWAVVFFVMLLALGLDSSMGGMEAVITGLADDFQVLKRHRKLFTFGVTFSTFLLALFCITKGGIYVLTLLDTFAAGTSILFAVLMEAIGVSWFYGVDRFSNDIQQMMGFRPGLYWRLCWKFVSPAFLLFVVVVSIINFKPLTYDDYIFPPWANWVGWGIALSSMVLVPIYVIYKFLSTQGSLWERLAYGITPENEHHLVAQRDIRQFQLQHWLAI
Chain of Sodium-dependent serotonin transporter (P31645 whole entry): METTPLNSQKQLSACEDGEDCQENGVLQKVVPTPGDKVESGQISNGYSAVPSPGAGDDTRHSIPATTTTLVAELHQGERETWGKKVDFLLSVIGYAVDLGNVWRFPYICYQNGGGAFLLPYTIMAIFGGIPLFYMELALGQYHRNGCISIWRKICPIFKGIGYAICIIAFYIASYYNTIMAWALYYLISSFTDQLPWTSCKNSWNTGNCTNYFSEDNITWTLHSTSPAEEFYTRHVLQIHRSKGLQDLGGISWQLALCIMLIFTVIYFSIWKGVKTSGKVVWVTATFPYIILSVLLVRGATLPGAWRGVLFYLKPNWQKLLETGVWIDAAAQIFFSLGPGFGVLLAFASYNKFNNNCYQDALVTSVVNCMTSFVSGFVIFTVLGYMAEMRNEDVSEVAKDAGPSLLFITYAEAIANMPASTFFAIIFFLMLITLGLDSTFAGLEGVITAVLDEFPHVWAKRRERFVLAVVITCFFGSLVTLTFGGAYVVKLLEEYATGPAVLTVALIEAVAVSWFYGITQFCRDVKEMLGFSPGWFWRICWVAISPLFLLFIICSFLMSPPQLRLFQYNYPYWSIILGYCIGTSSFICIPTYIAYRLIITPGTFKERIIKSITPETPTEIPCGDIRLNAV
Chain of D(3) dopamine receptor (P35462 whole entry): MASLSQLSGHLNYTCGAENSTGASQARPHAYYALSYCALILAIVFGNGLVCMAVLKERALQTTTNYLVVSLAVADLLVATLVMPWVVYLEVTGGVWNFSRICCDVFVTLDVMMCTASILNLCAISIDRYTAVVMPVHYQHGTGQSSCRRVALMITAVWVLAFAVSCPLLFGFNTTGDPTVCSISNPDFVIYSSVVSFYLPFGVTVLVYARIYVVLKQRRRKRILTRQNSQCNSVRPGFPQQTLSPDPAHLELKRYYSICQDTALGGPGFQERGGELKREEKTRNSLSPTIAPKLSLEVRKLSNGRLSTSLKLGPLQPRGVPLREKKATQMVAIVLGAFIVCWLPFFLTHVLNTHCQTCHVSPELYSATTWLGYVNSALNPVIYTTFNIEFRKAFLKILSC
Chain of Histamine H1 receptor (P35367 whole entry): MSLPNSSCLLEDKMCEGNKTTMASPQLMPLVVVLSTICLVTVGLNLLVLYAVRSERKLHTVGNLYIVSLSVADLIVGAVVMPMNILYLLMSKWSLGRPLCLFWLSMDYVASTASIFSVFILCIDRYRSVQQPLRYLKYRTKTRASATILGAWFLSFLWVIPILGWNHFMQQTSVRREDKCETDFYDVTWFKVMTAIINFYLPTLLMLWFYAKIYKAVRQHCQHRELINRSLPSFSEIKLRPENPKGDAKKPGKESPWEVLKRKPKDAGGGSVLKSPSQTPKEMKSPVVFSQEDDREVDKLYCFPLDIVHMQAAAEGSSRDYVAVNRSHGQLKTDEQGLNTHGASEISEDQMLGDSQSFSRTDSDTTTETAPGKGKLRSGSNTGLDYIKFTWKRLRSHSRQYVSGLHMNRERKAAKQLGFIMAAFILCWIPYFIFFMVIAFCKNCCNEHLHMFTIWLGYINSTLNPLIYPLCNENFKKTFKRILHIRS
Chain of Sodium-dependent dopamine transporter (Q01959 whole entry): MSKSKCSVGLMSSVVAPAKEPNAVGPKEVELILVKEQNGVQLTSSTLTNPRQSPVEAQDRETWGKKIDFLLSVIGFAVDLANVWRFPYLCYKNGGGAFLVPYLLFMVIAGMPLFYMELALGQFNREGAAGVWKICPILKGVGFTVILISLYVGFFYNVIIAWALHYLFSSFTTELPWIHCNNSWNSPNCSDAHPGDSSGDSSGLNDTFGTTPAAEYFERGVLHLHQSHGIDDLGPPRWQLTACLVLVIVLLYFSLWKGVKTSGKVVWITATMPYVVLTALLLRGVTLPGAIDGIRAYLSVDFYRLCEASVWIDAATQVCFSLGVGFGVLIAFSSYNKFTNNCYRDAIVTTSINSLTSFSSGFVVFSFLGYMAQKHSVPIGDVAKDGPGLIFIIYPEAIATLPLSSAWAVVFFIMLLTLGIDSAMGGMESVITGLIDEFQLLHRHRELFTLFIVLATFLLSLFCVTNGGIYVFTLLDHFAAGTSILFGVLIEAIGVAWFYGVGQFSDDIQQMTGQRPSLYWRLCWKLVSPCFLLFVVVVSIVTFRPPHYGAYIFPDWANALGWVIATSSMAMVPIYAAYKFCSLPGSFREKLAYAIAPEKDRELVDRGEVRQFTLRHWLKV
Chain of Histamine H2 receptor (P25021 whole entry): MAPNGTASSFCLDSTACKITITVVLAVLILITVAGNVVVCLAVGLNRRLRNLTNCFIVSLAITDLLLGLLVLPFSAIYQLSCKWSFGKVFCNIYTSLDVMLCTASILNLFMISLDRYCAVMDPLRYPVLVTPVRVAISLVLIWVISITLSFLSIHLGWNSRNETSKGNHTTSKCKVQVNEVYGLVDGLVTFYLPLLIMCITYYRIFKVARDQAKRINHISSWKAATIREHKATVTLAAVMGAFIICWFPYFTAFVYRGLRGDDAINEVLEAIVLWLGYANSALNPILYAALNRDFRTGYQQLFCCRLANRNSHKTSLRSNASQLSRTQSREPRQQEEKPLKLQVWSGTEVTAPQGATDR
Chain of Histamine H3 receptor (Q9Y5N1 whole entry): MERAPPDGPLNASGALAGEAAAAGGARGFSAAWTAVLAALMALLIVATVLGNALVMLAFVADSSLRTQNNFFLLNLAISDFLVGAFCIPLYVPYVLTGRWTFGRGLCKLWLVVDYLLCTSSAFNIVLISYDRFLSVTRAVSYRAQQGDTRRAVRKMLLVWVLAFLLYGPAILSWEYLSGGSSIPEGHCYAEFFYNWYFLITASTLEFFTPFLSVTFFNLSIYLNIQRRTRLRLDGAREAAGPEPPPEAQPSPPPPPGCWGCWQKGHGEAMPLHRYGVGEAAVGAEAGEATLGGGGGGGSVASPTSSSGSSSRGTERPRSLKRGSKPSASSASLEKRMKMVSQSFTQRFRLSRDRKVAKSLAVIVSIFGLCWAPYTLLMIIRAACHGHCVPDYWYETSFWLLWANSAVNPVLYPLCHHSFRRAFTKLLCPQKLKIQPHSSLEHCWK

As usually defined, the AC50 is the concentration at which the activity in the assay is half-maximal. High values mean activity only at high concentration, low ones activity at low concentration. Regarding `CC(=O)OCC1=C(C(=O)O)N2C(=O)[C@@H](NC(=O)CSc3ccncc3)[C@H]2SC1` [CEPHAPIRIN], the AC50 at Histamine H1 receptor is above 10 µM; on Histamine H2 receptor, above 10 µM; in test [1], above 30 µM; on Glucocorticoid receptor, above 30 µM; in test [2], above 30 µM; at Progesterone receptor, above 30 µM. Besides, the AC50 at Thromboxane A2 receptor is above 10 µM; in test [3], above 10 µM; in test [4] it was above 10 µM; in [5] it was above 10 µM; on D(3) dopamine receptor it was above 30 µM.
Turning to `CN(C)CCOC(=O)C(c1ccccc1)C1(O)CCCC1` (stereo not given) [CYCLOPENTOLATE], the AC50 at Histamine H1 receptor was above 30 µM; on Histamine H2 receptor, above 30 µM; in [1], above 30 µM; on Glucocorticoid receptor, above 10 µM; in [2], above 30 µM; at Progesterone receptor, above 10 µM. Further, the AC50 at Thromboxane A2 receptor was above 10 µM; in test [3], above 30 µM; in test [4], above 30 µM; in [5], above 30 µM; on D(3) dopamine receptor, above 30 µM.
For `CCC(=O)O[C@H](CC(=O)O)C[N+](C)(C)C` [LEVOCARNITINE PROPIONATE], the AC50 (at Histamine H1 receptor; on Histamine H2 receptor; in test [1]; at Glucocorticoid receptor; in test [2]; at Progesterone receptor) was above 30 µM throughout. For the same molecule, the AC50 (in test [3]; in [4]; in [5]; at D(3) dopamine receptor; on Histamine H3 receptor) was above 30 µM in each case.
Turning to `O=C(O)c1nn(Cc2ccc(Cl)cc2Cl)c2ccccc12` [LONIDAMINE], the AC50 (at Histamine H1 receptor; on Histamine H2 receptor; in [1]; at Glucocorticoid receptor; in [2]; on Progesterone receptor) was above 30 µM each time. Also, the AC50 (in test [3]; in [4]; in test [5]; on D(3) dopamine receptor; at Histamine H3 receptor) was above 30 µM in each case.
Consider `COC(=O)c1ccc2c(c1)NC(=O)/C2=C(\Nc1ccc(N(C)C(=O)CN2CCN(C)CC2)cc1)c1ccccc1` [NINTEDANIB], for which the AC50 at Histamine H1 receptor is above 30 µM; on Histamine H2 receptor, above 30 µM; in test [1] it was 25 µM; at Glucocorticoid receptor it was above 30 µM; in test [2], above 30 µM; on Progesterone receptor, above 30 µM. For the same molecule, the AC50 (in test [3]; in [4]; in test [5]; at D(3) dopamine receptor; at Histamine H3 receptor) was above 30 µM each time.
Turning to `CCOC(=O)O[C@]1(C(=O)COC(=O)CC)CC[C@H]2[C@@H]3CCC4=CC(=O)C=C[C@]4(C)[C@H]3[C@@H](O)C[C@@]21C` [PREDNICARBATE], the AC50 is above 10 µM on Histamine H1 receptor; above 10 µM at Histamine H2 receptor; above 30 µM in test [1]; 0.017 µM at Glucocorticoid receptor; above 30 µM in test [2]; 1.3 µM at Progesterone receptor. Also, the AC50 on Thromboxane A2 receptor is above 10 µM; in [3] it was above 10 µM; in [4], above 10 µM; in [5] it was above 10 µM; on D(3) dopamine receptor it was above 30 µM.
As to `CCC(=O)[C@@]1(C)[C@H](C)C[C@H]2[C@@H]3CCC4=CC(=O)C=C[C@]4(C)[C@H]3[C@@H](O)C[C@@]21C` [RIMEXOLONE], the AC50 on Histamine H1 receptor was above 10 µM; at Histamine H2 receptor, above 10 µM; in test [1], above 30 µM; at Glucocorticoid receptor, 0.01 µM; in test [2], above 30 µM; on Progesterone receptor, 0.0032 µM. In addition, the AC50 on Thromboxane A2 receptor is above 10 µM; in [3] it was above 10 µM; in test [4] it was above 10 µM; in test [5], above 10 µM; on D(3) dopamine receptor it was above 30 µM.
`CS(=O)(=O)NC(=O)CCC/C=C\C[C@H]1C(=O)C[C@@H](O)[C@@H]1/C=C/[C@@H](O)COc1ccccc1` [SULPROSTONE]: the AC50 (on Histamine H1 receptor; on Histamine H2 receptor; in test [1]; at Glucocorticoid receptor; in test [2]; at Progesterone receptor) was above 30 µM each time. Moreover, the AC50 (in test [3]; in test [4]; in [5]; on D(3) dopamine receptor; on Histamine H3 receptor) was above 30 µM in each case.
As for `CCCCC[C@H](O)CC[C@@H]1[C@H]2Cc3cccc(OCC(=O)O)c3C[C@H]2C[C@H]1O` [TREPROSTINIL], the AC50 (at Histamine H1 receptor; on Histamine H2 receptor; on Glucocorticoid receptor; in [2]; at Progesterone receptor; at Thromboxane A2 receptor) was above 30 µM each time. For the same molecule, the AC50 (in test [3]; in test [4]; in test [5]; on D(3) dopamine receptor; at Histamine H3 receptor) was above 30 µM in each case.
Turning to `CCCCCCCC(=O)CC[C@@H]1[C@@H](C/C=C\CCCC(=O)O)[C@@H](O)C[C@H]1O` [UNOPROSTONE], the AC50 (on Histamine H1 receptor; at Histamine H2 receptor; in test [1]; on Glucocorticoid receptor; in test [2]; on Progesterone receptor) was above 30 µM in each case. The AC50 (in test [3]; in [4]; in test [5]; at D(3) dopamine receptor; on Histamine H3 receptor) was above 30 µM in each case.

Values taken from ChEMBL document CHEMBL5291721, “A preclinical secondary pharmacology resource illuminates target-adverse drug reaction associations of marketed drugs” (Nat Commun, 2023).
